# In ChEMBL document CHEMBL1255306, “Potential basis for amphotericin B resistance in Aspergillus terreus” (2008):
# Active and inactive are the calls of the source. The calls are words filed in the database; no cut-off is given here.
# How the values were obtained:
# [1] = tested on: Aspergillus terreus; assay: Antimicrobial activity against Aspergillus terreus conidia by CLSI M38-A broth microdilution method; assay type: functional
# [2] = tested on: Aspergillus terreus; assay: Antimicrobial activity against Aspergillus terreus protoplast by CLSI M38-A broth microdilution method; assay type: functional
# [3] = tested on: Aspergillus terreus; assay: Antimicrobial activity against AMB-resistant Aspergillus terreus assessed as high malonaldehyde activity at 5 ug/ml after 8 hrs by thiobarbituric acid test; assay type: functional, organism-based
# [4] = tested on: Aspergillus fumigatus; assay: Antimicrobial activity against […] Aspergillus fumigatus assessed as high malonaldehyde activity at 5 ug/ml after 8 hrs by thiobarbituric acid test; assay type: functional, organism-based
# [5] = tested on: Aspergillus terreus; assay: Antimicrobial activity against AMB-resistant Aspergillus terreus assessed as high malonaldehyde activity at 10 ug/ml after 8 hrs by thiobarbituric acid test; assay type: functional, organism-based
# [6] = tested on: Aspergillus fumigatus; assay: Antimicrobial activity against […] Aspergillus fumigatus assessed as high malonaldehyde activity at 10 ug/ml after 8 hrs by thiobarbituric acid test; assay type: functional, organism-based
# [7] = tested on: Aspergillus fumigatus; assay: Antimicrobial activity against […] Aspergillus fumigatus assessed as catalase activity after 24 to 48 hrs; assay type: functional, organism-based
# [8] = tested on: Aspergillus terreus; assay: Antimicrobial activity against AMB-resistant Aspergillus terreus assessed as catalase activity after 24 to 48 hrs; assay type: functional, organism-based
smiles,measurement,setting,value
C[C@@H]1[C@H](O)[C@@H](C)/C=C/C=C/C=C/C=C/C=C/C=C/C=C/[C@H](O[C@@H]2O[C@H](C)[C@@H](O)[C@H](N)[C@@H]2O)C[C@@H]2O[C@](O)(C[C@@H](O)C[C@@H](O)[C@H](O)CC[C@@H](O)C[C@@H](O)CC(=O)O[C@H]1C)C[C@H](O)[C@H]2C(=O)O [AMPHOTERICIN B],MIC,[1],1.7 µg/mL
same,MIC,[2],1.41 µg/mL
same,Activity,[3],Active
same,Activity,[4],Active
same,Activity,[5],Active
same,Activity,[6],Active
same,Activity,[7],inactive
same,Activity,[8],Active
